Experimental data taken from ChEMBL document CHEMBL5096239, “Two Binding Sites of SARS-CoV-2 Macrodomain 3 Probed by Oxaprozin and Meclomen” (J Med Chem, 2022).
pKd: −log10 of the molar value.

Legend:
[1] = Binding affinity to 15N-labelled His6-tagged SARS-CoV-2 Mac3 (551 to 675 residues) V635I mutant expressed in Escherichia coli Rosetta by NMR HSQC spectral analysis; design: species or system Severe acute respiratory syndrome coronavirus 2
[2] = Binding affinity to 15N-labelled MTSL-tagged SARS-CoV-2 Mac3 (551 to 675 residues) T583C mutant expressed in Escherichia coli Rosetta by transferred PRE analysis; design: species or system Severe acute respiratory syndrome coronavirus 2

For `Cc1ccc(Cl)c(Nc2ccccc2C(=O)O)c1Cl` [MECLOFENAMIC ACID], the pKd [1] was 3.52 and the pKd [2] was 3.15.
